Reference: patent US8748497B2, “Optimized fluorocarbon emulsions for blood substitutes and other therapeutic uses” (Alliance Pharmaceutical Corp., priority 2006, dated 2014)
Read-outs that look alike come from different tables or passages of the source.

Key:
[1] = in vivo; cited from earlier work
[2] = pharmacokinetics in subjects undergoing CABG surgery with hypothermic CPB; format: in vivo, human; conditions: human, whole blood, other: directly into the bypass oxygenator, 2.7 g PFC/kg
Protocol: The pharmacokinetics of PFOB and PFDB were determined after the administration of the fluorocarbon formulation taught in Example VI to human subjects undergoing coronary artery bypass grafting or CABG surgery with hypothermic cardiopulmonary bypass. In group 1 and in group 2, human subjects received the fluorocarbon emulsion (2.7 g PFC/kg) as taught in Example VI directly into the bypass oxygenator after being put on bypass but before cooling was begun. In group 4, subjects received 2.7 g PFC/kg of the fluorocarbon emulsion of Example VI directly into the bypass oxygenator either prior to aortic cannulation or after being put on bypass, but before cooling was begun.

[3] = pharmacokinetics in subjects undergoing noncardiac surgical procedures; format: in vivo, human; conditions: human, whole blood, noncardiac surgery; for clearance: read-out: CL (whole blood clearance) (converted); for Cmax: read-out: Cmax (maximum whole blood concentration); for half-life: read-out: T1/2 (elimination half-life) (converted)
Protocol: The pharmacokinetics of PFOB and PFDB were determined after the administration of the fluorocarbon emulsion of Example VI to subjects undergoing total hip replacement or spinal surgery or a variety of urologic and gynaecologic procedures including radical retropubic prostatectomy, radical hysterectomy, cystectomy and combined procedures. Human subjects in one study received either 0.9 g PFC/kg or 1.8 g PFC/kg of the fluorocarbon formulation of Example VI and those in a second study received 1.8 g PFC/kg of the fluorocarbon formulation of Example VI.

[4] = Phase 1 pharmacokinetics in healthy human volunteers; format: in vivo; conditions: for AUC(0-t) / half-life / Cmax: human, blood; for AUC(0-t) / half-life: intravenous; for AUC(0-t): read-out: AUC (0-336); for half-life: read-out: t1/2. 12 h (initial elimination half-life within the first 12 h post dose) (converted); for Cmax: iv, healthy volunteers
Protocol: Two randomised, controlled, double-blind, parallel group, Phase 1 studies were conducted in healthy human patients with the fluorocarbon emulsion made according to Example VI. Blood and expired air samples were analysed for PFOB and PFDB after a single intravenous dose of 1.2 or 1.8 g PFC/kg of the fluorocarbon emulsion of Example VI in healthy human volunteers to determine pharmacokinetics. Blood samples were collected up to 336 hours post-dosing.

[5] = pharmacokinetics in blood after single intravenous administration of the emulsion of Ex. VI; format: in vivo, Sprague Dawley rats; conditions: for MRT last / half-life: Sprague-Dawley, rat; for MRT last: read-out: MRT(0-last); for Vd: terminal phase; for half-life: iv, read-out: T1/2 (converted)
Excerpt: (§1) This study was designed to assess the pharmokinetics and tissue distribution of PFOB and PFDB following a single intravenous administration of the emulsion of Ex. VI at various time intervals at dose levels of 1.8 and 3.6 g PFC/k in male and female Sprague Daley rats, aged 7-9 weeks, weight between 190-267 grams. For pharmacokinetics, 160 rats were divided into 20 groups (N=4 rats/sex/dose/time interval) and for tissue distribution, 156 rats were divided into 26 groups (n=3 rats/sex/dose/time interval). The time intervals for pharmacokinetics blood sampling were 0.083, 0.5, 1, 3, 6, 12, 36, 48, 72 and 96 hours. The time intervals for tissue sampling was predose, 24 hours, 1, 2, 4, 8, 13, 17, 21, 26, 39, 52 and 72 weeks.
Six pharmacokinetic parameters were determined following a single intravenous dose of 1.8 gPFC/kg or 3.6 g PFC/kg in both the male and female rats as shown in the tables below.

[6] = tissue distribution after single intravenous administration of the emulsion of Ex. VI, GC headspace; format: in vivo, Sprague Dawley rats
Excerpt: as §1
26 groups (N=3 rats/sex/group). Prior to euthanasia, body weights were recorded. At designated times (see below), rats were anesthetized with METOFANE® and esanguinated via the abdominal artery. Blood was collected into syringes containing EDTA and transferred into sealed plastic containers for storage at approximately −20° C. until analyzed. Resultant data were included in the determination of pharmacokinetic parameters. The following tissues were collected from each rat and placed in sealed containers and stored frozen at −20° C. Prior to freezing, blood and tissue samples were processed for analysis. PFOB and PFDB were quantified in blood and tissues using a GC headspace method validated by Oread. The method was validated in the liver and then cross validated to all other tissues, blood, and serum. The tissues collected and analyzed include heart, lungs, abdominal fat, spleen, liver, mesenteric lymph nodes, kidneys, adrenals, testes, ovaries, uterus, whole brain, eyes, skeletal muscle, femoral bone marrow, and gastrointestinal tract.
The concentration of PFOB and PFDB was determined in the tissues in both sexes at 12 time points. For the males, this was a total of 360 individual results including blood. There were 24 additional results for the female.

[7] = 1.2 g PFC/kg, Table VII, 1.2 g PFC/kg
[8] = 1.2 g PFC/kg, Table VIII, 1.2 g PFC/kg
[9] = 1.8 g PFC/kg, Table VII, 1.8 g PFC/kg
[10] = 1.8 g PFC/kg, Table VIII, 1.8 g PFC/kg
[11] = female rats, 1.8 g PFC/kg single iv, blood
[12] = female rats, 3.6 g PFC/kg single iv, blood
[13] = male rats, 1.8 g PFC/kg single iv, blood
[14] = male rats, 3.6 g PFC/kg single iv, blood
[15] = female rats, 1.8 g PFC/kg, 24 hours
[16] = female rats, 3.6 g PFC/kg, 24 hours
[17] = male rats, 1.8 g PFC/kg, 24 hours

Q: For `FC(F)(F)C(F)(F)C(F)(F)C(F)(F)C(F)(F)C(F)(F)C(F)(F)C(F)(F)C(F)(F)C(F)(F)Br` [PFDB, perfluorodecyl bromide], which “half-life in the RES” value [1] is on record?
A: 552 h

Q: And the AUC(0-inf) [2]?
A: 16200 µg·h/mL

Q: And the clearance ([2]; read-out: CL (whole blood clearance) (converted))?
A: 0.113 mL/min/kg

Q: And the Cmax ([2]; read-out: Cmax (maximum whole blood concentration))?
A: 1030 µg/mL

Q: And the half-life ([2]; read-out: T1/2 (elimination half-life) (converted))?
A: 10.8 ± 4.46 h

Q: What about the AUC(0-inf) ([3]; 0.9 g PFC/kg) of the same molecule?
A: 736 ± 483 µg·h/mL

Q: And the clearance ([3]; 0.9 g PFC/kg)?
A: 0.973 mL/min/kg

Q: And the Cmax ([3]; 0.9 g PFC/kg)?
A: 284 ± 92.7 µg/mL

Q: What about the half-life ([3]; 0.9 g PFC/kg) of the same molecule?
A: 2.73 ± 1.32 h

Q: What about the AUC(0-inf) ([3]; 1.8 g PFC/kg) of the same molecule?
A: 2950 µg·h/mL

Q: And the clearance ([3]; 1.8 g PFC/kg)?
A: 0.595 mL/min/kg

Q: What about the Cmax ([3]; 1.8 g PFC/kg) of the same molecule?
A: 620 ± 158 µg/mL

Q: What about the half-life ([3]; 1.8 g PFC/kg) of the same molecule?
A: 5.56 ± 4.81 h

Q: What about the t1/2. 12 h (initial elimination half-life within the first 12 h post dose) ([4]; Table VIII, 1.2 g PFC/kg) of the same molecule?
A: 13.6 h

Q: What about the AUC(0-t) [4, 7] of the same molecule?
A: 6640 µg·h/mL

Q: What about the half-life [4, 7] of the same molecule?
A: 13.7 ± 3.6 h

Q: And the AUC(0-t) [4, 8]?
A: 4630 µg·h/mL

Q: And the half-life [4, 8]?
A: 7.35 h

Q: What about the AUC(0-t) [4, 9] of the same molecule?
A: 16300 µg·h/mL

Q: And the half-life [4, 9]?
A: 18.7 h

Q: And the AUC(0-t) [4, 10]?
A: 11200 µg·h/mL

Q: What about the half-life [4, 10] of the same molecule?
A: 12.6 h

Q: What about the Cmax ([4]; 1.2 g PFC/kg, Table VII, 1.2 g PFC/kg single iv) of the same molecule?
A: 540 ± 125 µg/mL

Q: What about the Cmax ([4]; 1.2 g PFC/kg, Table VIII, 1.2 g PFC/kg single iv) of the same molecule?
A: 670 ± 420 µg/mL

Q: What about the Cmax ([4]; 1.8 g PFC/kg, Table VII, 1.8 g PFC/kg single iv) of the same molecule?
A: 978 ± 499 µg/mL

Q: What about the Cmax ([4]; 1.8 g PFC/kg, Table VIII, 1.8 g PFC/kg single iv) of the same molecule?
A: 884 ± 196 µg/mL

Q: And the MRT last ([5]; 1.8 g/kg, female rats, 1.8 g PFC/kg single iv, blood)?
A: 113 h

Q: What about the MRT last ([5]; 1.8 g/kg, male rats, 1.8 g PFC/kg single iv, blood) of the same molecule?
A: 332 h

Q: And the MRT last ([5]; 3.6 g/kg, female rats, 3.6 g PFC/kg single iv, blood)?
A: 438 h

Q: And the MRT last ([5]; 3.6 g/kg, male rats, 3.6 g PFC/kg single iv, blood)?
A: 485 h

Q: What about the “AUC(o-last)” value [5, 11] of the same molecule?
A: 6.86 mg·h/g

Q: And the “AUC(o-∞)” value [5, 11]?
A: 7.54 mg·h/g

Q: And the Cl [5, 11]?
A: 238.76 g/h/kg

Q: What about the T1/2 ([5]; female rats, 1.8 g PFC/kg single iv, blood, last 3 or 4 data points) of the same molecule?
A: 199.851 days

Q: What about the Vd ([5]; female rats, 1.8 g PFC/kg single iv) of the same molecule?
A: 1652163 g/kg

Q: And the “AUC(o-last)” value [5, 12]?
A: 21.99 mg·h/g

Q: And the “AUC(o-∞)” value [5, 12]?
A: 22.87 mg·h/g

Q: What about the Cl [5, 12] of the same molecule?
A: 157.39 g/h/kg

Q: What about the Vd ([5]; female rats, 3.6 g PFC/kg single iv) of the same molecule?
A: 1728719 g/kg

Q: And the half-life ([5]; female, blood, 1.8 g/kg, female rats, 1.8 g PFC/kg single iv, blood, last 3 or 4 data points)?
A: ~200 days

Q: What about the half-life ([5]; female, blood, 3.6 g/kg, female rats, 3.6 g PFC/kg single iv, blood, last 3 or 4 data points) of the same molecule?
A: ~317 days

Q: What about the “AUC(o-last)” value [5, 13] of the same molecule?
A: 6.88 mg·h/g

Q: And the “AUC(o-∞)” value [5, 13]?
A: 10.65 mg·h/g

Q: And the Cl [5, 13]?
A: 169.05 g/h/kg

Q: And the Vd ([5]; male rats, 1.8 g PFC/kg single iv)?
A: 6128576 g/kg

Q: And the “AUC(o-last)” value [5, 14]?
A: 24.67 mg·h/g

Q: And the “AUC(o-∞)” value [5, 14]?
A: 27.62 mg·h/g

Q: And the Cl [5, 14]?
A: 130.34 g/h/kg

Q: And the Vd ([5]; male rats, 3.6 g PFC/kg single iv)?
A: 2359442 g/kg

Q: What about the half-life ([5]; male, blood, 1.8 g/kg, male rats, 1.8 g PFC/kg single iv, blood, last 3 or 4 data points) of the same molecule?
A: ~1050 days

Q: What about the half-life ([5]; male, blood, 3.6 g/kg, male rats, 3.6 g PFC/kg single iv, blood, last 3 or 4 data points) of the same molecule?
A: ~523 days

Q: And the “concentration in the spleen and liver” value ([6]; 24 hours, males 1.8 g PFC/kg)?
A: above 1 mg/g

Q: And the concentration at 24 h ([6]; Sprague-Dawley, rat, intravenous, 24 hr, all tissues, both sexes and both doses, read-out: absolute concentration in tissues)?
A: > 1000 ng/g

Q: What about the “percent of dose in liver” value [6, 15] of the same molecule?
A: ~86%

Q: What about the “percent of dose in spleen” value [6, 15] of the same molecule?
A: approximately 14%

Q: What about the “percent of dose in liver” value [6, 16] of the same molecule?
A: approximately 62%

Q: What about the “percent of dose in spleen” value [6, 16] of the same molecule?
A: approximately 8%

Q: What about the “concentration in the lymph nodes, spleen, liver and bone marrow” value ([6]; females 3.6 g PFC/kg) of the same molecule?
A: above 1 mg/g

Q: And the “percent of dose in liver” value [6, 17]?
A: ~85%

Q: And the “percent of dose in spleen” value [6, 17]?
A: approximately 15%

Q: What about the “percent of dose in spleen” value ([6]; male rats, 3.6 g PFC/kg) of the same molecule?
A: approximately 11%

Q: And the “percent of dose in liver” value ([6]; male rats, 3.6 g PFC/kg, 24 hours)?
A: ~69%

Q: And the “concentration in the spleen, liver, and bone marrow” value ([6]; males 3.6 PFC/kg)?
A: above 1 mg/g
